Laboratory results reported in patent publication US20220249441A1, “Homodimeric Tobramycin Adjuvant Repurposes Novobiocin as an Effective Antibacterial Agent Against Gram-Negative Bacteria” (priority 2019, published 2022).

What was measured:
P. aeruginosa = assay: Checkerboard assay (antibiotic + adjuvant combination MIC); type: cell-based, Pseudomonas aeruginosa; settings: compound at 8 μM
Method: (§1) Antimicrobial Susceptibility Assay. The in vitro antimicrobial activity of all compounds/antibiotics against a panel of bacteria was evaluated by microbroth dilution method in accordance with the Clinical and Laboratory Standards Institute (CLSI) guidelines (using ATCC strains as quality control strains) (54). Overnight grown bacterial cultures were diluted in saline to achieve a 0.5 McFarland turbidity, followed by 1:50 dilution in Mueller-Hinton broth (MHB) for inoculation to a final concentration of approximately 5×10^5 CFU/mL. […] The lowest concentration that prevented the visible growth of bacteria was defined as the MIC for each antimicrobial agent. The broth with or without bacterial cells was used as positive or negative control, respectively.
Checkerboard Assay. Combination studies with different antibiotics were performed in 96-well plates as previously described (19). Briefly, the antibiotic of interest was serially diluted in MHB along the abscissa while the adjuvant (tobramycin homodimer) was serially diluted in MHB along the ordinate. This creates a 10×7 matrices wherein each well consists of a combination of different antibiotic and adjuvant concentrations. Overnight grown bacterial cultures were diluted in saline to achieve a 0.5 McFarland turbidity, followed by 1:50 dilution in Mueller-Hinton broth (MHB) for inoculation to a final concentration of approximately 5×10^5 CFU/mL. […] MIC was recorded as wells with the lowest concentration of drugs with no bacterial growth. The fractional inhibitory concentration (FIC) for each antibiotic was calculated by dividing the MIC of the antibiotic in the presence of adjuvant by the MIC of the antibiotic alone. Similarly, the FIC of adjuvant was calculated by dividing the MIC of the adjuvant in the presence of antibiotic by the MIC of the adjuvant alone. FIC index is the sum of both FICs. FIC indices of ≤0.5 were deemed synergistic; >0.5-4, no interaction; and >4, antagonistic.

[1] = tested on: P. aeruginosa PAO1 and efflux deficient mutants, MDR/XDR isolates; assay: microbe, parasite or virus in culture; type: cell-based, Pseudomonas aeruginosa
Method: Antimicrobial Susceptibility Assay. The in vitro antimicrobial activity of all compounds/antibiotics against a panel of bacteria was evaluated by microbroth dilution method in accordance with the Clinical and Laboratory Standards Institute (CLSI) guidelines (using ATCC strains as quality control strains) (54). […] The broth with or without bacterial cells was used as positive or negative control, respectively.

[2] = tested on: panel of Gram-positive and Gram-negative bacteria; assay: Antimicrobial susceptibility assay against a panel of bacteria; type: cell-based; settings: some isolates
Method: as §1

Cl.Cl.Cl.Cl.Cl.Cl.NC[C@H]1O[C@H](O[C@H]2[C@H](OCCCCCCCCCCCCN3CCN(c4cc5c(cc4F)c(=O)c(C(=O)O)cn5C4CC4)CC3)[C@@H](O[C@H]3O[C@H](CO)[C@@H](O)[C@H](N)[C@H]3O)[C@H](N)C[C@@H]2N)[C@H](N)C[C@@H]1O [Compound 21, Tobramycin-ciprofloxacin]
MIC of Aztreonam + compound (P. aeruginosa; P. aeruginosa PAO1): 0.25 µg/mL | MIC of Ceftazidime + compound (P. aeruginosa; P. aeruginosa PAO1): 0.25 µg/mL | MIC of Imipenem + compound (P. aeruginosa; P. aeruginosa PAO1): 0.5 µg/mL | MIC of Piperacillin + compound (P. aeruginosa; P. aeruginosa PAO1): 2 µg/mL | MIC of ATM in the presence of compound (P. aeruginosa; PA 259-96918): 8 µg/mL | MIC of CAZ in the presence of compound (P. aeruginosa; PA 259-96918): 64 µg/mL | MIC of IPM in the presence of compound (P. aeruginosa; PA 259-96918): 16 µg/mL | MIC of ATM in the presence of compound (P. aeruginosa; PA 260-97103): 4 µg/mL | MIC of CAZ in the presence of compound (P. aeruginosa; PA 260-97103): 4 µg/mL | MIC of IPM in the presence of compound (P. aeruginosa; PA 260-97103): 2 µg/mL | MIC of ATM in the presence of compound (P. aeruginosa; PA 262-101856): 4 µg/mL | MIC of CAZ in the presence of compound (P. aeruginosa; PA 262-101856): 4 µg/mL | MIC of IPM in the presence of compound (P. aeruginosa; PA 262-101856): 4 µg/mL | MIC of ATM in the presence of compound (P. aeruginosa; PA 264-104354): 8 µg/mL | MIC of CAZ in the presence of compound (P. aeruginosa; PA 264-104354): 16 µg/mL | MIC of IPM in the presence of compound (P. aeruginosa; PA 264-104354): 4 µg/mL | MIC of ATM in the presence of compound (P. aeruginosa; PA 86052): 8 µg/mL | MIC of CAZ in the presence of compound (P. aeruginosa; PA 86052): 32 µg/mL | MIC of IPM in the presence of compound (P. aeruginosa; PA 86052): 8 µg/mL | MIC of ATM in the presence of compound (P. aeruginosa; PA 88949): 8 µg/mL | MIC of CAZ in the presence of compound (P. aeruginosa; PA 88949): 32 µg/mL | MIC of IPM in the presence of compound (P. aeruginosa; PA 88949): 8 µg/mL | MIC of ATM in the presence of compound (P. aeruginosa; PA 91433): 4 µg/mL | MIC of CAZ in the presence of compound (P. aeruginosa; PA 91433): 2 µg/mL | MIC of IPM in the presence of compound (P. aeruginosa; PA 91433): 2 µg/mL | MIC of ATM in the presence of compound (P. aeruginosa; PA 100036): 4 µg/mL | MIC of CAZ in the presence of compound (P. aeruginosa; PA 100036): 2 µg/mL | MIC of IPM in the presence of compound (P. aeruginosa; PA 100036): 2 µg/mL | MIC of ATM in the presence of compound (P. aeruginosa; PA 101243): 4 µg/mL | MIC of CAZ in the presence of compound (P. aeruginosa; PA 101243): 8 µg/mL | MIC of IPM in the presence of compound (P. aeruginosa; PA 101243): 2 µg/mL | MIC of ATM in the presence of compound (P. aeruginosa; PA 101885): 1 µg/mL | MIC of CAZ in the presence of compound (P. aeruginosa; PA 101885): 1 µg/mL | MIC of IPM in the presence of compound (P. aeruginosa; PA 101885): 2 µg/mL | MIC of ATM in the presence of compound (P. aeruginosa; PA 107092): 8 µg/mL | MIC of CAZ in the presence of compound (P. aeruginosa; PA 107092): 16 µg/mL | MIC of IPM in the presence of compound (P. aeruginosa; PA 107092): 8 µg/mL | MIC of ATM in the presence of compound (P. aeruginosa; PA 108590): 0.5 µg/mL | MIC of CAZ in the presence of compound (P. aeruginosa; PA 108590): 0.5 µg/mL | MIC of IPM in the presence of compound (P. aeruginosa; PA 108590): 0.25 µg/mL | MIC of ATM in the presence of compound (P. aeruginosa; PA 109084): 16 µg/mL | MIC of CAZ in the presence of compound (P. aeruginosa; PA 109084): 16 µg/mL | MIC of IPM in the presence of compound (P. aeruginosa; PA 109084): 8 µg/mL | MIC of ATM in the presence of compound (P. aeruginosa; PA 114228): 2 µg/mL | MIC of CAZ in the presence of compound (P. aeruginosa; PA 114228): 0.5 µg/mL | MIC of IPM in the presence of compound (P. aeruginosa; PA 114228): 2 µg/mL | MIC of ATM in the presence of compound (P. aeruginosa; PA O200 (efflux-deficient)): 0.03 µg/mL | MIC of CAZ in the presence of compound (P. aeruginosa; PA O200 (efflux-deficient)): 0.06 µg/mL | MIC of IPM in the presence of compound (P. aeruginosa; PA O200 (efflux-deficient)): 1 µg/mL | MIC of ATM in the presence of compound (P. aeruginosa; PA O750 (efflux-deficient)): 0.06 µg/mL | MIC of CAZ in the presence of compound (P. aeruginosa; PA O750 (efflux-deficient)): 0.03 µg/mL | MIC of IPM in the presence of compound (P. aeruginosa; PA O750 (efflux-deficient)): 0.5 µg/mL | MIC of ATM in the presence of compound (P. aeruginosa; PAO1): 0.25 µg/mL | MIC of CAZ in the presence of compound (P. aeruginosa; PAO1): 0.25 µg/mL | MIC of IPM in the presence of compound (P. aeruginosa; PAO1): 0.5 µg/mL | resistant isolates in which CLSI breakpoint was attained for aztreonam (P. aeruginosa): twelve out of thirteen | resistant isolates in which CLSI breakpoint was attained for ceftazidime (P. aeruginosa): four out of eleven | resistant isolates in which CLSI breakpoint was attained for imipenem (P. aeruginosa): ten out of seventeen | MIC ([1]; PA0750 (efflux-deficient)): 2 µg/mL | MIC ([1]; PAO1 (wild-type)): 32 µg/mL | MIC ([1]; PAO200 (first column so headed)): 4 µg/mL | MIC ([1]; PAO200 (second column so headed)): 2 µg/mL | intrinsic antimicrobial activity [2]: some modest residual activity
